In patent publication US20220017566A1, “TERPINOID DERIVATIVES AND USES THEREOF” (SICHUAN HAISCO PHARMACEUTICAL CO., LTD., priority 2018, published 2022) one finds IC50 data, which are given here for eleven compounds.

Series [1] has as its system IFNγ-induced NO production in Raw 264.7 cells. In words: Nitric oxide assay: suppression of IFNγ-induced NO production (Griess nitrite, adjusted to live cell numbers). In kind it is cell-based. The conditions noted are these: Mus musculus, RAW264.7, 2 h pretreatment, IFNγ 10 ng/ml for 24 hours. The method, then:
Raw 264.7 cells were seeded in 96-well plates at a density of 30, 000 cells per well in DMEM+10% FBS and incubated overnight. The next day, cell media was replaced by DMEM+2% FBS. Cells were pretreated with DMSO or test compounds (top dose 100 nM, 1:4 serial dilution, 10-point) for 2 hours and then treated with recombinant mouse IFNγ (R&D, Cat# 485-MI-100) at a final concentration of 10 ng/ml for 24 hours. Nitrite levels were measured in culture media as a surrogate for nitric oxide using the Griess Reagent System (Promega, Cat# G2930). Cell viability was determined using CellTiter Glo reagents (Promega, Cat#G7572). The nitrite levels were adjusted to live cell numbers and inhibition percentage was calculated. The inhibition percentage was then plotted against compound concentration, and IC50 values were calculated using four-parameter algorithm in Graphpad Prism.
A general note: Nitrite, measured by Griess reagent, commonly stands in for NO production.

The target of series [2] is T1, CYP2D6 (Homo sapiens, UniProt P10635).
T1 construct: studied in liver microsomes of CD-1 mouse, Sprague Dawley rat, Beagle dog, cynomolgus monkey, and human; from tissue; host or cells: liver microsomes
T1 sequence (P10635 whole entry): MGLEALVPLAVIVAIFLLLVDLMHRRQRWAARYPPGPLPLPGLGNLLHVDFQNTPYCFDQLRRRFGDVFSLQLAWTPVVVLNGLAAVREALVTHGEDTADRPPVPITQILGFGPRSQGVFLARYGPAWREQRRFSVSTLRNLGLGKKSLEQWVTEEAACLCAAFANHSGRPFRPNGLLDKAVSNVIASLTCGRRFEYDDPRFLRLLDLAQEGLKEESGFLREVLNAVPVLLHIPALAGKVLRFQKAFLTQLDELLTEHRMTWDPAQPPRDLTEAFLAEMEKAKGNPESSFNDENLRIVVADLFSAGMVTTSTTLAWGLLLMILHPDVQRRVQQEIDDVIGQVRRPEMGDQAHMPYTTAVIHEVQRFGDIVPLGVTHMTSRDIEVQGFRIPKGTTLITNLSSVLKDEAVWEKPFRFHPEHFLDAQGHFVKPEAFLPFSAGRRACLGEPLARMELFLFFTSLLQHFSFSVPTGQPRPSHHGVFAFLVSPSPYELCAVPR
The series is described as follows: CYP450 enzyme inhibition in liver microsomes (cocktail probe incubation). In kind it is in vitro ADME. The conditions noted are these: species not given, 0.05-50 μM tested. Here is the method:
(§1) The inhibition potential of test compounds towards major drug metabolizing CYP450 enzymes was studied in liver microsomes of CD-1 mouse, Sprague Dawley rat, Beagle dog, cynomolgus monkey, and human. The inhibition of CYP1A2, CYP2C9, CYP2C19, CYP2D6, and CYP3A4 was assessed using CYP450 specific probe reactions in a cocktail incubation. Seven concentrations of test compounds (0.05, 0.15, 0.5, 1.5, 5, 15, and 50 μM) were evaluated. In addition, known inhibitors for each probe reaction were included as positive controls and incubated at a single concentration above their respective IC50.
(Liver microsomes are vesicles of endoplasmic reticulum, rich in cytochrome P450 enzymes.)

For series [3], the target named is T2, CYP3A4 (Homo sapiens, UniProt P08684).
T2 construct: studied in liver microsomes of CD-1 mouse, Sprague Dawley rat, Beagle dog, cynomolgus monkey, and human; from tissue; host or cells: liver microsomes
T2 sequence (P08684 whole entry): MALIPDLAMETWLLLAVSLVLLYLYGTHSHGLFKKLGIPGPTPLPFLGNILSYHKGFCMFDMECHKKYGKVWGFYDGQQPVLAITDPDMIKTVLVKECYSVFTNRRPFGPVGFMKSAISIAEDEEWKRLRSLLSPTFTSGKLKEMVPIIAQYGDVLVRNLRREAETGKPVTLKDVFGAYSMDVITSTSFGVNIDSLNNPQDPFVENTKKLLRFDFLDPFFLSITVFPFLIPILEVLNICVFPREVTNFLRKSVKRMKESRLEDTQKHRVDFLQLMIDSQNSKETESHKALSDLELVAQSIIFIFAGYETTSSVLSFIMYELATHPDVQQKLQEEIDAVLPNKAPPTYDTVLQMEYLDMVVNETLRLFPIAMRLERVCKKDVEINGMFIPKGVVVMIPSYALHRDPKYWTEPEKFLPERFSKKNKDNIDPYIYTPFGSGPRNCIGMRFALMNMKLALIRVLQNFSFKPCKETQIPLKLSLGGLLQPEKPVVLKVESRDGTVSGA
The description is as above. In kind it is in vitro ADME. Conditions: species not given, 0.05-50 μM tested. Here is the method:
as §1

In series [4] the target is T3, CYP1A2 (Homo sapiens, UniProt P05177).
T3 construct: studied in liver microsomes of CD-1 mouse, Sprague Dawley rat, Beagle dog, cynomolgus monkey, and human; from tissue; host or cells: liver microsomes
T3 sequence (P05177 1-516): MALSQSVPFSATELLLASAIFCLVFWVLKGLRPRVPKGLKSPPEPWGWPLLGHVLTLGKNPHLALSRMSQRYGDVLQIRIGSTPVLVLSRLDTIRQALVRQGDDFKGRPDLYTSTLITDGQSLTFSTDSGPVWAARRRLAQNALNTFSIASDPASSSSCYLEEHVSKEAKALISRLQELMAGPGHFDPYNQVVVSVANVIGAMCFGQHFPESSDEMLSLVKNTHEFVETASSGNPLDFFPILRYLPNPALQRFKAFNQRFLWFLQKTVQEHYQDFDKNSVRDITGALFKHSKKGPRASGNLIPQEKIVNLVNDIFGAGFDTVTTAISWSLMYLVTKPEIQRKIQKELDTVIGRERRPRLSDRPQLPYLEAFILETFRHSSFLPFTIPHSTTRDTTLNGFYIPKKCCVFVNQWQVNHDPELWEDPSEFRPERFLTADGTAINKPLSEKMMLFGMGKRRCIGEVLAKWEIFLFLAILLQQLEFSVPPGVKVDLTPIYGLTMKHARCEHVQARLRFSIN
Described as above. The class given is in vitro ADME. The conditions noted are these: species not given, 0.05-50 μM tested. Here is the method:
as §1

The target in series [5] is T4, CYP2C9 (Homo sapiens, UniProt P11712).
T4 construct: studied in liver microsomes of CD-1 mouse, Sprague Dawley rat, Beagle dog, cynomolgus monkey, and human; from tissue; host or cells: liver microsomes
T4 sequence (P11712 whole entry): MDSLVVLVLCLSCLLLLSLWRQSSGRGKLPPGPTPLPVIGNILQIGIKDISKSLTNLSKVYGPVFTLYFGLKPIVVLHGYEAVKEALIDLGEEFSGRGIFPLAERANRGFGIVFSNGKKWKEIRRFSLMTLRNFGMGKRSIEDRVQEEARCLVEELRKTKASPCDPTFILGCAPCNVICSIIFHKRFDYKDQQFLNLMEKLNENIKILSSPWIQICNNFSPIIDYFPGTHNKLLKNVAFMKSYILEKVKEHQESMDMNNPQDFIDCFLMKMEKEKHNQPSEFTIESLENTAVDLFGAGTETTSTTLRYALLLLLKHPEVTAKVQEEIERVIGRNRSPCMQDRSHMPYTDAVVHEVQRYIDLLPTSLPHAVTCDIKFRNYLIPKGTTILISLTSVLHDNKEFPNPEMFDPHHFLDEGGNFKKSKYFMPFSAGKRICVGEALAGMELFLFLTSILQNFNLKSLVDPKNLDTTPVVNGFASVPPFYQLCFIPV
The description is as above. The class given is in vitro ADME. Conditions: species not given, 0.05-50 μM tested. The method, then: as §1

The target in series [6] is T5, CYP2C19 (Homo sapiens, UniProt P33261).
T5 construct: studied in liver microsomes of CD-1 mouse, Sprague Dawley rat, Beagle dog, cynomolgus monkey, and human; from tissue; host or cells: liver microsomes
T5 sequence (P33261 whole entry): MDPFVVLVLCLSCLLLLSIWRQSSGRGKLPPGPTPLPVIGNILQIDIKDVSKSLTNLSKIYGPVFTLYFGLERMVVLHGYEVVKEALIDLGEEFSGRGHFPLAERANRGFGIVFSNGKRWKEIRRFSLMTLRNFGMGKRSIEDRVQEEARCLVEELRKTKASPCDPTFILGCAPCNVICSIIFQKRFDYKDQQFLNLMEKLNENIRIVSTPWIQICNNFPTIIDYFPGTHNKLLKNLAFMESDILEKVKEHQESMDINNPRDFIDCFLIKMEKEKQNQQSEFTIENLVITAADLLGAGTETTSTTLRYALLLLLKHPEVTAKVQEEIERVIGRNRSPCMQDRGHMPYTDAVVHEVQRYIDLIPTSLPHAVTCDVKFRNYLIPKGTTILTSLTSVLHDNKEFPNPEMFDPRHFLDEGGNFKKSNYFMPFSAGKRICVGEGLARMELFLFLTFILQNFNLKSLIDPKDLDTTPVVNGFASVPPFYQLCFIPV
Described as above. Conditions: species not given, 0.05-50 μM tested. In kind it is in vitro ADME. The method, then:
as §1

Some results are limits rather than exact numbers.

As a reminder, the IC50 is the midpoint of a concentration-inhibition curve.

As to `CC1(C)C(=O)C(C#N)=C[C@]2(C)C3=CC(=O)[C@@H]4[C@@H]5C[C@@](C)(c6ncco6)CC[C@]5(C)CC[C@@]4(C)[C@]3(C)CC[C@@H]12` [Example 6, (4aR,6aS,6bR,8aS,11S,12aS,12bR,14bS)-4,4,6a,6b,8a,11,14b-heptamethyl-11-(oxazol-2-yl)-3,13-dioxo-3,4,4a,5,6,6a,6b,7,8,8a,9,10,11,12,12a,12b,13,14b-octadecahydropicene-2-carbonitrile], the concentration for half-maximal inhibition (IC50) in series [1] is < 0.01 µM; in series [2], 6.9 µM; in series [3], 0.5 µM; in series [4] it was > 50 µM; in series [5], 2.1 µM; in series [6], 5.6 µM.
For `Cc1cnc([C@@]2(C)CC[C@]3(C)CC[C@]4(C)[C@H](C(=O)C=C5[C@@]6(C)C=C(C#N)C(=O)C(C)(C)[C@@H]6CC[C@]54C)[C@@H]3C2)o1` [Example 7, (4aR,6aS,6bR,8aS,11S,12aS,12bR,14bS)-4,4,6a,6b,8a,11,14b-heptamethyl-11-(5-methyloxazol-2-yl)-3,13-dioxo-3,4,4a,5,6,6a,6b,7,8,8a,9,10,11,12,12a,12b,13,14b-octadecahydropicene-2-carbonitrile], the IC50 in series [1] was < 0.01 µM; in series [2], 10.1 µM; in series [3], 0.8 µM; in series [4], > 50 µM; in series [5] it was 2 µM; in series [6], 9.4 µM.
Take `CC1(C)C(=O)C(C#N)=C[C@]2(C)C3=CC(=O)[C@@H]4[C@@H]5C[C@@](C)(c6nc(-c7ccccc7)n[nH]6)CC[C@]5(C)CC[C@@]4(C)[C@]3(C)CC[C@@H]12` [Example 8, (4aR,6aS,6bR,8aS,11S,12aS,12bR,14bS)-4,4,6a,6b,8a,11,14b-heptamethyl-3,13-dioxo-11-(3-phenyl-1H-1,2,4-triazol-5-yl)-3,4,4a,5,6,6a,6b,7,8,8a,9,10,11,12,12a,12b,13,14b-octadecahydropicene-2carbonitrile]: the IC50 in series [1] lay within 0.01 to 0.1 µM.
On to `CC1(C)C(=O)C(C#N)=C[C@]2(C)C3=CC(=O)[C@@H]4[C@@H]5C[C@@](C)(c6nnc(C(F)(F)F)o6)CC[C@]5(C)CC[C@@]4(C)[C@]3(C)CC[C@@H]12` [Example 10, (4aR,6aS,6bR,8aS,11S,12aS,12bR,14bS)-4,4,6a,6b,8a,11,14b-heptamethyl-3,13-dioxo-11-(5-(trifluoromethyl)-1,3,4-oxadiazol-2-yl)-3,4,4a,5,6,6a,6b,7,8,8a,9,10,11,12,12a,12b,13,14b-octadecahydropicene-2-carbonitrile], for which the IC50 was < 0.01 µM in series [1]; > 50 µM in series [2]; 1.3 µM in series [3]; > 50 µM in series [4]; 1.8 µM in series [5]; 27.5 µM in series [6].
As to `CC1(C)C(=O)C(C#N)=C[C@]2(C)C3=CC(=O)[C@@H]4[C@@H]5C[C@@](C)(N6CCOCC6)CC[C@]5(C)CC[C@@]4(C)[C@]3(C)CC[C@@H]12` [Example 11, (4aR,6aS,6bR,8aS,11S,12aS,12bR,14bS)-4,4,6a,6b,8a,11,14b-heptamethyl-11-morpholino-3,13-dioxo-3,4,4a,5,6,6a,6b,7,8,8a,9,10,11,12,12a,12b,13,14b-octadecahydropicene-2-carbonitrile], the IC50 is < 0.01 µM in series [1]; > 50 µM in series [2]; 0.5 µM in series [3]; > 50 µM in series [4]; 2.2 µM in series [5]; 14.6 µM in series [6].
In the case of `CC1(C)C(=O)C(C#N)=C[C@]2(C)C3=CC(=O)[C@@H]4[C@@H]5C[C@@](C)(c6nnc(C7CC7)o6)CC[C@]5(C)CC[C@@]4(C)[C@]3(C)CC[C@@H]12` [Example 16, (4aR,6aS,6bR,8aS,11S,12aS,12bR,14bS)-11-(5-cyclopropyl-1,3,4-oxadiazol-2-yl)-4,4,6a,6b,8a,11,14b-heptamethyl-3,13-dioxo-3,4,4a,5,6,6a,6b,7,8,8a,9,10,11,12,12a,12b,13,14b-octadecahydropicene-2-carbonitrile], the IC50 is < 0.01 µM in series [1]; 14.7 µM in series [2]; 1.5 µM in series [3]; > 50 µM in series [4]; 2 µM in series [5]; 7.4 µM in series [6].
Take `CC1(C)C(=O)C(C#N)=C[C@]2(C)C3=CC(=O)[C@@H]4[C@@H]5C[C@@](C)(n6cnnc6)CC[C@]5(C)CC[C@@]4(C)[C@]3(C)CC[C@@H]12` [Example 17, (4aR,6aS,6bR,8aS,11S,12aS,12bR,14bS)-4,4,6a,6b,8a,11,14b-heptamethyl-3,13 dioxo-11-(4H-1,2,4-triazol-4-yl)-3,4,4a,5,6,6a,6b,7,8,8a,9,10,11,12,12a,12b,13,14b-octadecahydropicene-2-carbonitrile]: the IC50 in series [2] was 35.4 µM; in series [3] it was 0.1 µM; in series [4], > 50 µM; in series [5] it was 2.2 µM; in series [6], 16.9 µM.
With `CC1(C)C(=O)C(C#N)=C[C@]2(C)C3=CC(=O)[C@@H]4[C@@H]5C[C@@](C)(N6CCCC6)CC[C@]5(C)CC[C@@]4(C)[C@]3(C)CC[C@@H]12` [Example 21, (4aR,6aS,6bR,8aS,11S,12aS,12bR,14bS)-4,4,6a,6b,8a,11,14b-heptamethyl-3,13-dioxo-11-(pyrrolidin-1-yl)-3,4,4a,5,6,6a,6b,7,8,8a,9,10,11,12,12a,12b,13,14b-octadecahydropicene-2-carbonitrile], in series [1], the half-inhibitory concentration (IC50) is 0.01 to 0.1 µM.
As for `C[C@H](O)c1nnc([C@@]2(C)CC[C@]3(C)CC[C@]4(C)[C@H](C(=O)C=C5[C@@]6(C)C=C(C#N)C(=O)C(C)(C)[C@@H]6CC[C@]54C)[C@@H]3C2)o1` [Example 23, (4aR,6aS,6bR,8aS,11S,12aS,12bR,14bS)-11-(5-((S)-1-hydroxyethyl)-1,3,4-oxadiazol-2-yl)-4,4,6a,6b,8a,11,14b-heptamethyl-3,13-dioxo-3,4,4a,5,6,6a,6b,7,8,8a,9,10,11,12,12a,12b,13,14b-octadecahydropicene-2-carbonitrile], the IC50 is 0.01 to 0.1 µM in series [1]; 15.8 µM in series [2]; 0.9 µM in series [3]; > 50 µM in series [4]; 1.5 µM in series [5]; 11.8 µM in series [6].
As to `CNC(=O)c1nnc([C@@]2(C)CC[C@]3(C)CC[C@]4(C)[C@H](C(=O)C=C5[C@@]6(C)C=C(C#N)C(=O)C(C)(C)[C@@H]6CC[C@]54C)[C@@H]3C2)o1` [Example 24, 5-((2S,4aS,6aR,6bS,8aR,12aS,14aR,14bS)-11-cyano-2,4a,6a,6b,9,9,12a-heptamethyl-10,14-dioxo-1,2,3,4,4a,5,6,6a,6b,7,8,8a,9,10,12a,14,14a,14b-octadecahydropicen-2-yl)-N-methyl-1,3,4-oxadiazole-2-carboxamide], the IC50 in series [1] was < 0.01 µM; in series [2], 4 µM; in series [3], 0.5 µM; in series [4], > 50 µM; in series [5] it was 0.6 µM; in series [6], 2.8 µM.
Regarding `CC1(C)C(=O)C(C#N)=C[C@]2(C)C3=CC(=O)[C@@H]4[C@@H]5C[C@@](C)(c6nnc(N)o6)CC[C@]5(C)CC[C@@]4(C)[C@]3(C)CC[C@@H]12` [Example 27, (4aR,6aS,6bR,8aS,11S,12aS,12bR,14bS)-11-(5-amino-1,3,4-oxadiazol-2-yl)-4,4,6a,6b,8a,11,14b-heptamethyl-3,13-dioxo-3,4,4a,5,6,6a,6b,7,8,8a,9,10,11,12,12a,12b,13,14b-octadecahydropicene-2-carbonitrile], in series [1], the IC50 is 0.01 to 0.1 µM.
